Columns and labels:
marmosets = assay: Hypotensive activities in monkeys (furosemide-treated marmosets, oral administration); assay type: in vivo; conditions: 30 mg/kg orally; three marmosets; furosemide 30 mg/kg pretreatment (high renin active state); FIG. 1
Experimental: The hypotensive activities were measured in accordance with a method disclosed in J. Cardiovascular Pharmacology, Vol. 7, (Suppl. 4) S58-61 (1985). Namely, 30 mg/kg of furosemide (diuretic) was intracutaneously injected to three marmosets i.e. small size monkeys to produce a high renin active state. To these marmosets, 30 mg/kg of the compound of Example 1 was orally administered, whereupon the hypotensive activities were measured.

human plasma renin = biological target: T1, human plasma renin (Homo sapiens, UniProt P00797); assay: Renin inhibiting activities (human plasma, angiotensin I by radio immunoassay); assay type: biochemical; conditions: pH7.4, 37° C., one hour, read-out: IC50 (50 % inhibition concentrations), renin inhibiting activity
T1 construct: from tissue; host or cells: human plasma
T1 sequence (P00797 67-406): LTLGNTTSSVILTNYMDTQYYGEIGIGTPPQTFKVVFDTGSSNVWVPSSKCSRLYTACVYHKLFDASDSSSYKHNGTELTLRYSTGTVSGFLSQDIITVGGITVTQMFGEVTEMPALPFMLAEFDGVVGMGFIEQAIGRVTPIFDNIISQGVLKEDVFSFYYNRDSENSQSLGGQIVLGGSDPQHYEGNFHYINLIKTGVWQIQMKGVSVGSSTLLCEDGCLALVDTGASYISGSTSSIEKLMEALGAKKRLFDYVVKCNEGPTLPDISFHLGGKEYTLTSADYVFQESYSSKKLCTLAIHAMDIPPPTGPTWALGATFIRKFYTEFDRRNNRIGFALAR
Experimental: To 156 μl of a 0.2M sodium phosphate buffer solution (pH7.4), 40 μl of a solution mixture of 34 mM 8-hydroxyquinoline and 100 mM disodium ethylenediamine tetraacetate, 4 μl of dimethyl sulfoxide or a dimethyl sulfoxide solution of test compound and 200 μl of human plasma were added and reacted at 37° C. for one hour. Then, pepstatin was added thereto to terminate the reaction, and the amount of the resulting angiotension I was measured by radio immunoassay whereby the inhibiting activity was determined.

Structure (SMILES) | hypotensive activities (marmosets) | IC50 (human plasma renin) [nM]
CCCC[C@H](NC(=O)[C@H](Cc1cccc2ccccc12)CS(=O)(=O)CC(COC(C)=O)OC(C)=O)C(=O)N[C@@H](CC1CCCCC1)[C@@H](O)[C@@H](O)CN1CCOCC1 (mixture of isomers) [Example 1, (2S, 3R, 4S)-4-{L-N-[(2S)-3-[(2RS)-2,3-diacetoxypropyl]sulfonyl-2-(1-naphthylmethyl)propionyl]norleucyl}amino-5-cyclohexyl-1-morpholino-2,3-pentanediol] | exhibits hypotensive activities by the oral administration | 2.5
CCCC[C@H](NC(=O)[C@H](Cc1cccc2ccccc12)CS(=O)(=O)C1CCC(OC(C)=O)C1)C(=O)N[C@@H](CC1CCCCC1)[C@@H](O)[C@@H](O)CN1CCOCC1 (single isomer, unassigned) [Example 33 (having a low Rf value)] | – | 1.1
CCCC[C@H](NC(=O)[C@H](Cc1cccc2ccccc12)CS(=O)(=O)CC(COC(C)=O)OC)C(=O)N[C@@H](CC1CCCCC1)[C@@H](O)[C@@H](O)CN1CCOCC1 (single isomer, unassigned) [Example 39] | – | 1.3
CCCC[C@H](NC(=O)[C@H](Cc1cccc2ccccc12)CS(=O)(=O)CC(COC(C)=O)OC)C(=O)N[C@@H](CC1CCCCC1)[C@@H](O)[C@@H](O)CN1CCOCC1 (single isomer, unassigned) [Example 40] | – | 1
CCCC[C@H](NC(=O)[C@H](Cc1cccc2ccccc12)CS(=O)(=O)CCOC(C)=O)C(=O)N[C@@H](CC1CCCCC1)[C@@H](O)[C@@H](O)CN1CCOCC1 [Example 3, (2S,3R,4S)-4{L-N-[(2S)-3-(2-acetoxyethyl)sulfonyl-2-(1-naphthylmethyl)propionyl]norleucyl)amino-5-cyclohexyl-1-morpholino-2,3-pentanediol] | – | 3.1
CCCC[C@H](NC(=O)[C@H](Cc1cccc2ccccc12)CS(=O)(=O)CCOC(=O)C(C)(C)C)C(=O)N[C@@H](CC1CCCCC1)[C@@H](O)[C@@H](O)CN1CCOCC1 [Example 4] | – | 7.7
CCCC[C@H](NC(=O)[C@H](Cc1cccc2ccccc12)CS(=O)(=O)CCOC(=O)OCC)C(=O)N[C@@H](CC1CCCCC1)[C@@H](O)[C@@H](O)CN1CCOCC1 [Example 5, (2S,3R,4S)-4-{L-N-[(2S)-3-(2-ethoxycarbonyloxyethyl)sulfonyl-2-(1-naphthylmethyl)propionyl]norleucyl}amino-5-cyclohexyl-1-morpholino-2,3-pentanediol] | – | 5
CCCC[C@H](NC(=O)[C@@H](CSCC(COC(C)=O)OC(C)=O)Cc1cccc2ccccc12)C(=O)N[C@@H](CC1CCCCC1)[C@@H](O)[C@@H](O)CN1CCOCC1 (stereo partly drawn) [Example 7, (2S,3R,4S)-4-{L-N-[(2S)-3-[(2RS)-2,3,-diacetoxypropyl]thio-2-(1-naphthylmethyl)propionyl]norleucyl}amino-5-cyclohexyl-1-morpholino-2,3-pentanediol] | – | 2.8
CCCC[C@H](NC(=O)[C@H](Cc1cccc2ccccc12)CS(=O)(=O)CC(O)COC(C)=O)C(=O)N[C@@H](CC1CCCCC1)[C@@H](O)[C@@H](O)CN1CCOCC1 (stereo partly drawn) [Example 11] | – | 6.3
CCCC[C@H](NC(=O)[C@@H](CSc1ccc(OC(C)=O)cc1)Cc1cccc2ccccc12)C(=O)N[C@@H](CC1CCCCC1)[C@@H](O)[C@@H](O)CN1CCOCC1 [Example 18, (2S,3R,4S)-4-{L-N-[(2S)-3-(4-acetoxyphenylthio)-2-(1-naphthylmethyl)propionyl]norleucyl}amino-5-cyclohexyl-1-morpholino-2,3-pentanediol] | – | 9.2
CC(=O)OCC(CS(=O)(=O)C[C@@H](Cc1cccc2ccccc12)C(=O)N[C@@H](Cc1c[nH]cn1)C(=O)N[C@@H](CC1CCCCC1)[C@@H](O)[C@@H](O)CN1CCOCC1)OC(C)=O (stereo partly drawn) [Example 23] | – | 4.8
CC(=O)OCCS(=O)(=O)C[C@@H](Cc1cccc2ccccc12)C(=O)N[C@@H](Cc1c[nH]cn1)C(=O)N[C@@H](CC1CCCCC1)[C@@H](O)[C@@H](O)CN1CCOCC1 [Example 30] | – | 1.9
CCCC[C@H](NC(=O)[C@@H](CSC1CCC(OC(C)=O)C1)Cc1cccc2ccccc12)C(=O)N[C@@H](CC1CCCCC1)[C@@H](O)[C@@H](O)CN1CCOCC1 (stereo partly drawn) [Example 34, (2S,3R,4S)-4-{L-N-[(2S)-3-(3-acetoxycyclopentyl)thio-2-(1-naphthylmethyl)propionyl]norleucyl}amino-5-cyclohexyl-1-morpholino-2,3-pentanediol] | – | 5.6
CCCC[C@H](NC(=O)[C@H](Cc1cccc2ccccc12)CS(=O)(=O)C1CCCC1OC(C)=O)C(=O)N[C@@H](CC1CCCCC1)[C@@H](O)[C@@H](O)CN1CCOCC1 (stereo partly drawn) [Example 35, (2S,3R,4S)-4-{L-N-[(2S)-3-(2-acetoxycyclopentyl)sulfonyl-2-(1-naphthylmethyl)propionyl]norleucyl}amino-5-cyclohexyl-1-morpholino-2,3-pentanediol] | – | 3.1
CCCC[C@H](NC(=O)[C@H](Cc1cccc2ccccc12)CS(=O)(=O)C1CCC(OC(C)=O)C1OC(C)=O)C(=O)N[C@@H](CC1CCCCC1)[C@@H](O)[C@@H](O)CN1CCOCC1 (stereo partly drawn) [Example 36, (2S,3R,4S),4-{L-N-[(2S)-3-(2,3-diacetoxycyclopentyl)sulfonyl-2-(1-naphthylmethyl)propionyl]norleucyl}amino-5-cyclohexyl-1-morpholino-2,3-pentanediol] | – | 1.9
CCCC[C@H](NC(=O)[C@H](Cc1cccc2ccccc12)CS(=O)(=O)C1C(OC(C)=O)CCC1OC(C)=O)C(=O)N[C@@H](CC1CCCCC1)[C@@H](O)[C@@H](O)CN1CCOCC1 (stereo partly drawn) [Example 37, (2S,3R,4S)-4-{L-N-[(2S)-3-(2,5-diacetoxycyclopentyl)sulfonyl-2-(1-naphthylmethyl)propionyl]norleucyl}amino-5-cyclohexyl-1-morpholino-2,3-pentanediol] | – | 2.9
CCCC[C@H](NC(=O)[C@H](Cc1cccc2ccccc12)CS(=O)(=O)CC(COC(C)=O)=NOC)C(=O)N[C@@H](CC1CCCCC1)[C@@H](O)[C@@H](O)CN1CCOCC1 [Example 41, (2S,3R,4S)-4-{L-N-[(2S)-3-(3-acetoxy-2-methoxyiminopropyl)sulfonyl-2-(1-naphthylmethyl)propionyl]norleucyl}amino-5-cyclohexyl-1-morpholino-2,3-pentanediol] | – | 0.79
CCCC[C@H](NC(=O)[C@H](Cc1cccc2ccccc12)CS(=O)(=O)CC(COC(C)=O)=NO)C(=O)N[C@@H](CC1CCCCC1)[C@@H](O)[C@@H](O)CN1CCOCC1 [Example 42, (2S,3R,4S)-4-{L-N-[(2S)-3-(3-acetoxy-2-hydroxyiminopropyl)sulfonyl-2-(1-naphthylmethyl)propionyl]norleucyl}amino-5-cyclohexyl-1-morpholino-2,3-pentanediol] | – | 6.1
COC(COC(C)=O)CS(=O)(=O)C[C@@H](Cc1cccc2ccccc12)C(=O)N[C@@H](Cc1cscn1)C(=O)N[C@@H](CC1CCCCC1)[C@@H](O)[C@@H](O)CN1CCOCC1 (stereo partly drawn) [Example 44, (2S,3R,4S)-4-{L,N-[(2S)-3-[(2RS)-3-acetoxy-2-methoxypropyl]sulfonyl-2-(1-naphthylmethyl)propionyl]-(4-thiazolyl)alanyl}amino-5-cyclohexyl-1-morpholino-2,3-pentanediol] | – | 1.8
CCCC[C@H](NC(=O)[C@H](Cc1cccc2ccccc12)CS(=O)(=O)CC(COC(C)=O)(OCC)OCC)C(=O)N[C@@H](CC1CCCCC1)[C@@H](O)[C@@H](O)CN1CCOCC1 [Example 48, (2S,3R,4S)-4-{L-N-[(2S)-3-(3-acetoxy-2,2-diethoxypropyl)sulfonyl-2-(1-naphthylmethyl)propionyl]norleucyl}amino-5-cyclohexyl-1-morpholino-2,3-pentanediol] | – | 3.9

From patent US5424309A, “N-substituted acylamino acid compounds, process for their production and their use” (Banyu Pharmaceutical Co., Ltd., priority 1988, dated 1995)
